Paper PMC12152147, “DDB1 engagement defines the selectivity of S656 analogs for cyclin K degradation over CDK inhibition” (EMBO Reports, 2025)
Where two headings read alike, the source gives them in different places.

Assays:
[1] = system: OCI-AML5 cells expressing shRNAs targeting CDK1, 2, 4, 7, 9, cyclin K; assay: Dose response in OCI-AML5 expressing shRNAs targeting CDK1, 2, 4, 7, 9, cyclin K or control; type: cell-based, H. sapiens; conditions: for Class: class from shRNA IC50 profile and cyclin K-eGFP degradation
CDK9/CyclinT = biological target: T1, CDK9/CyclinT (Homo sapiens, UniProt P50750); assay: CDK9/CyclinT in vitro kinase activity, single concentration 1 μM; type: biochemical; conditions: single concentration 1 μM
T1 construct: purchased BPS Bioscience 79628
T1 sequence (P50750 whole entry): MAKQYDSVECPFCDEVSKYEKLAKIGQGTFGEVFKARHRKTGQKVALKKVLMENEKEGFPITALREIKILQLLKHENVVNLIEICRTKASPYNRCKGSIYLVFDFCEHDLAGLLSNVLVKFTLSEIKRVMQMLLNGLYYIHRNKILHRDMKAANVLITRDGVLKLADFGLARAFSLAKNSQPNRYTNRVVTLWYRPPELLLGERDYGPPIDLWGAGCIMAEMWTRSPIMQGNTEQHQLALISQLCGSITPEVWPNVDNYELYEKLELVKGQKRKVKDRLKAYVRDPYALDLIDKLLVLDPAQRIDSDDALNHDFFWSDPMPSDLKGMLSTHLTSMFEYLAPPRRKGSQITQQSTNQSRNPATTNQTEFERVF
T1 sequence (O60563 whole entry partner): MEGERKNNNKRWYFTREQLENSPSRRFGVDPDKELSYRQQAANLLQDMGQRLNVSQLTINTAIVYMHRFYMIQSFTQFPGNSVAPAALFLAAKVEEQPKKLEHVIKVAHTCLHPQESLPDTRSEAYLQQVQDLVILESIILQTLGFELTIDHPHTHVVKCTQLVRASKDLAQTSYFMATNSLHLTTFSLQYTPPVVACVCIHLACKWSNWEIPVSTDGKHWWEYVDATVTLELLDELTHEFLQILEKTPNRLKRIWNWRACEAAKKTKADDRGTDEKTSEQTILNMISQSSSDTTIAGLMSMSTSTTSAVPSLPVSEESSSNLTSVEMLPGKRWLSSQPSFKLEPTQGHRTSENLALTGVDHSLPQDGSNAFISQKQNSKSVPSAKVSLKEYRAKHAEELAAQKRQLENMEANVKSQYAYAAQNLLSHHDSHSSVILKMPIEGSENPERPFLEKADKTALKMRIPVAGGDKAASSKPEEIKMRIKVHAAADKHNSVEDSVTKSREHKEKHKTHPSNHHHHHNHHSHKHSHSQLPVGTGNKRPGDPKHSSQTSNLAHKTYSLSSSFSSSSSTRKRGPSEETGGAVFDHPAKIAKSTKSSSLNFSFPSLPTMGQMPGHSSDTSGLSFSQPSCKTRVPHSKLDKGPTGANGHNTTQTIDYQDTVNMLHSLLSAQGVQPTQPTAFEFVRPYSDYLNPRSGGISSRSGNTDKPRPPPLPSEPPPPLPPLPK
Experimental: Kinase activity was assessed using the kinase assay kits from BPS Bioscience for CDK1, CDK9 and CDK12 with Kinase Glo MAX in duplicates. Compounds were tested at a single concentration of 1 μM for CDK1 and CDK9 activity, and in a dilution ranging from 0.64 nM to 50 μM for CDK12 activity. Chemiluminescence was read using the Neo Synergy BioTek plate reader.

cyclin KeGFP = assay: Cyclin KeGFP reporter system (eGFP/mCherry MFI by flow cytometry);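 on % degradation cyclin K-eGFP: 10 μM compound for 3 h relative to DMSO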; type: cell-based, H. sapiens; conditions: for % degradation cyclin K-eGFP: cyclin K-eGFP reporter
Experimental: We used the cyclin KeGFP reporter system previously described (Słabicki et al, [2020]). Lentiviral vector (Addgene plasmid #169930) was used to infect OCI-AML5 at a MOI of 5 and were selected with puromycin. Cells were seeded in methylcellulose and let grown as colonies for 10 days. Colonies were isolated, expanded and selected based on cyclin KeGFP fluorescence in presence and absence of cyclin K degrader molecules. Selected G7 clone was used for all reported experiments. Fluorescent signal of cyclin KeGFP and mCherry were quantified by flow cytometry (BD LSRII) in each condition and the geometric mean fluorescence intensity (MFI) were calculated using FlowJo (BD Biosciences). The ratio of eGFP to mCherry was normalized to DMSO-treated cells.

[2] = system: OCI-AML5 cells expressing shRNA targeting CUL4A or CUL4B; assay: Dose response in OCI-AML5 expressing shRNAs targeting CUL4A, CUL4B or control; type: cell-based, H. sapiens; conditions: ratio of IC50 in shCUL4A vs shCTRL OCI-AML5 cells
OCI-AML5 cells = assay: Dose-response proliferative assay in OCI-AML5 (4 days, CellTiterGlo); type: cell-based, H. sapiens
Experimental: Cell lines were purchased from the ATCC or donated from collaborators. OCI-AML5 cell line was cultured in αMEM, 10% heat-inactivated FBS supplemented with 10 ng/mL GM-CSF, OCI-AML1, U2OS and HEK293T cell lines in DMEM, 10% heat-inactivated FBS. Cells were maintained at 37 °C in 5% CO2 atmosphere.
Dose-response assays in primary AML specimens were performed as in chemical screen (see above) with the exception that compounds were tested in serial dilution (8 dilutions, 1:4, 10 μM down to 0.5 nM). Dose-response assays in OCI-AML5 cell line were conducted similarly with the following modifications: 300 cells per well were seeded in 50 μL of cell line media and cell viability was evaluated after 4 days in culture.

[3] = OCI-AML5 expressing shRNA CCNK (cyclin K), read-out: IC50 shRNA CCNK
[4] = OCI-AML5 expressing shRNA CDK1, read-out: IC50 shRNA CDK1
[5] = OCI-AML5 expressing shRNA CDK2, read-out: IC50 shRNA CDK2
[6] = OCI-AML5 expressing shRNA CDK4, read-out: IC50 shRNA CDK4
[7] = OCI-AML5 expressing shRNA CDK7, read-out: IC50 shRNA CDK7
[8] = OCI-AML5 expressing shRNA CDK9, read-out: IC50 shRNA CDK9
[9] = Homo sapiens, OCI-AML-5, OCI-AML5 expressing shRNA CCNK (cyclin K), read-out: IC50 shRNA CCNK
[10] = Homo sapiens, OCI-AML-5, OCI-AML5 expressing shRNA CDK1, read-out: IC50 shRNA CDK1
[11] = Homo sapiens, OCI-AML-5, OCI-AML5 expressing shRNA CDK2, read-out: IC50 shRNA CDK2
[12] = Homo sapiens, OCI-AML-5, OCI-AML5 expressing shRNA CDK4, read-out: IC50 shRNA CDK4
[13] = Homo sapiens, OCI-AML-5, OCI-AML5 expressing shRNA CDK7, read-out: IC50 shRNA CDK7
[14] = Homo sapiens, OCI-AML-5, OCI-AML5 expressing shRNA CDK9, read-out: IC50 shRNA CDK9
[15] = Homo sapiens, OCI-AML-5, OCI-AML5 cells, read-out: IC50 in AML5

SMILES | IC50 [1, 3] [µM] | IC50 [1, 4] [µM] | IC50 [1, 5] [µM] | IC50 [1, 6] [µM] | IC50 [1, 7] [µM] | IC50 [1, 8] [µM] | Class [1] | % CDK9 inhibition (CDK9/CyclinT) [%] | % degradation cyclin K-eGFP (cyclin KeGFP) [%] | IC50 [1, 9] [µM] | IC50 [1, 10] [µM] | IC50 [1, 11] [µM] | IC50 [1, 12] [µM] | IC50 [1, 13] [µM] | IC50 [1, 14] [µM] | inhibition at 1 µM (CDK9/CyclinT) [%] | Ratio shCUL4A/shCTRL [2] | IC50 (OCI-AML5 cells; [15]) [µM] | activity after alteration of the aminothiazole core / bulky replacement [1] | also measured
CC(=O)Nc1ncc(SCc2cccnc2)s1 [UOM-005188] | > 10 | 2.97 | > 10 | > 10 | > 10 | > 10 | 2 | 1 | 6 |  |  |  |  |  |  |  |  |  |  | 
O=C(Cc1ccc(C(F)(F)F)cc1)Nc1ncc(SCc2cccnc2)s1 [UOM-005203] |  |  |  |  |  |  | mixed 1-2 |  | 51 | 3.02 | 2.68 | 4.39 | 3.59 | 3.83 | 3.64 | 72 | 1.13 | 4.29 |  | 
O=C(Cc1cc(F)ccc1Br)Nc1ncc(SCc2cccnc2)s1 [UOM-005204] |  |  |  |  |  |  | 2 |  | 12 | 6.94 | 3.57 | 8.34 | 5.28 | 8.07 | 4.1 | 15 | 1.11 | 4.48 |  | 
CC(C)(C)OC(=O)N1CCC(C(=O)Nc2ncc(SCc3cccnc3)s2)CC1 [UOM-005205] | 5.11 | 2.99 | 2.94 | 5.08 | 3.3 | 4.3 |  | 40 | 32 |  |  |  |  |  |  |  | 0.65 |  |  | IC50 (OCI-AML5 cells; OCI-AML5 cells, read-out: IC50 in AML5): 2.92 µM
CSc1ccc(CC(=O)Nc2ncc(SCc3cccnc3)s2)cc1 [UOM-005206] |  |  |  |  |  |  | mixed 1-2 |  | 76 | 0.458 | 0.867 | 1.28 | 1.3 | 1.33 | 0.848 | 67 | 1.77 | 1.18 |  | 
O=C(CC1CCCC1)Nc1ncc(SCc2cccnc2)s1 [UOM-005225] |  |  |  |  |  |  | 2 |  | 2 | 4.56 | 2.36 | 2.92 | 4.09 | 4.06 | 3 | 73 | 1.07 | 3.79 |  | 
Cc1nc(CC(=O)Nc2ncc(SCc3cccnc3)s2)c(C)s1 [UOM-005227] |  |  |  |  |  |  |  |  | 0 | 6.24 | 7.68 | 6.5 | 4.79 | 4.79 | 5.39 | 53 | 1.12 | 5.63 |  | 
Cn1cc(CC(=O)Nc2ncc(SCc3cccnc3)s2)c2ccccc21 [UOM-005228] |  |  |  |  |  |  | 2 |  | 23 | 5.43 | 2.27 | 4.58 | 4.4 | 4.12 | 3.26 | 51 | 0.81 | 4.04 |  | 
Cc1nnc(NC(=O)Cc2ccc(N(C)C)cc2)s1 [UOM-005596] | > 10 | > 10 | > 10 | > 10 | > 10 | > 10 | inactive | 0 | 0 |  |  |  |  |  |  |  |  |  | loss of binding of the compounds to CDK | 
CN(C)c1ccc(CC(=O)Nc2nccs2)cc1 [UOM-005597] |  |  |  |  |  |  | inactive |  | 4 | > 10 | > 10 | > 10 | > 10 | > 10 | > 10 | 0 |  | > 10 |  | 
Cc1csc(NC(=O)Cc2ccc(N(C)C)cc2)n1 [UOM-005598] | > 10 | > 10 | > 10 | > 10 | > 10 | > 10 | inactive | 0 | 1 |  |  |  |  |  |  |  |  |  | neither bind to CDKs, nor degrade Cyclin K | 
CN(C)c1ccc(CC(=O)Nc2nc3c(s2)CCC3)cc1 [UOM-005599] |  |  |  |  |  |  | inactive |  | 13 | > 10 | > 10 | > 10 | > 10 | > 10 | > 10 | 0 |  | > 10 | neither bind to CDKs, nor degrade Cyclin K | 
CN(C)c1ccc(CC(=O)Nc2nc3ccccc3s2)cc1 [UOM-005600] | > 10 | > 10 | > 10 | > 10 | > 10 | > 10 | inactive | 10 | 29 |  |  |  |  |  |  |  |  |  | neither bind to CDKs, nor degrade Cyclin K | 
CN(C)c1ccc(CC(=O)Nc2nncs2)cc1 [UOM-005601] | > 10 | > 10 | > 10 | > 10 | > 10 | > 10 | inactive | 0 | 1 |  |  |  |  |  |  |  |  |  | loss of binding of the compounds to CDK | 
COC(=O)c1cnc(NC(=O)Cc2ccc(N(C)C)cc2)s1 [UOM-005602] |  |  |  |  |  |  | inactive |  | 26 | > 10 | > 10 | > 10 | > 10 | > 10 | > 10 | 0 |  | > 10 |  | 
CN(C)c1ccc(CC(=O)Nc2nc3ccccc3[nH]2)cc1 [UOM-005603] |  |  |  |  |  |  | inactive |  | 10 | > 10 | > 10 | > 10 | > 10 | > 10 | > 10 | 0 |  | > 10 | neither bind to CDKs, nor degrade Cyclin K | 
CN(C)c1ccc(CC(=O)Nc2nc3ccccc3o2)cc1 [UOM-005604] | > 10 | > 10 | > 10 | > 10 | > 10 | > 10 | inactive | 0 | 8 |  |  |  |  |  |  |  |  |  | neither bind to CDKs, nor degrade Cyclin K | 
CN(C)c1ccc(CC(=O)Nc2nnc(SCc3cccnc3)s2)cc1 [UOM-005628] |  |  |  |  |  |  | inactive |  | 0 | > 10 | > 10 | > 10 | > 10 | > 10 | > 10 | 0 |  | > 10 | loss of binding of the compounds to CDK | 
CN(C)c1ccc(C(=O)Nc2ncc(SCc3cccnc3)s2)cc1 [UOM-005845] |  |  |  |  |  |  |  |  |  |  |  |  |  |  |  |  |  |  |  | % cyclin KeGFP degradation (cyclin KeGFP; 3 h, 10 μM, compared to DMSO, OCI-AML5 G7 clone): 0%; IC50 (OCI-AML5 cells; Homo sapiens, OCI-AML-5, 96 h, 4 days incubation, read-out: IC50 OCI-AML5): 1.97 µM
